Laboratory results: US8921373B2, “Compounds having TRPV1 antagonistic activity and uses thereof” (Shionogi & Co., Ltd., priority 2010, dated 2014)

Legend:
human recombinant TRPV1 [1] = biological target: T1, human recombinant TRPV1 (Homo sapiens (Human), UniProt Q8NER1); experiment: TRPV1 Capsaicin-Based Assay (Protocol 2, TRPV1/CHO cells, Fluo-4, FLIPR); type: cell-based; conditions: TRPV1/CHO cells, capsaicin 100 nM final; read-out: IC50 value by the Capsaicin-Based Assay
How it was run: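 CHO cells stably expressing human TRPV1 were loaded with 3 μM Fluo-4 for 1 h, then given compounds in HBSS/1 mM CaCl2/20 mM HEPES pH 7.4 with 1% DMSO for 2 min before 100 nM capsaicin (final). FLIPR fluorescence recorded over the full course; curves fitted.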

human recombinant TRPV1 [2] = biological target: T1, human recombinant TRPV1; experiment: TRPV1 pH-Based Assay (Protocol 2, Ca2+ response in TRPV1/CHO cells, Fura-2); type: cell-based; conditions: TRPV1/CHO cells, pH 5.0-5.1; read-out: IC50 value by the pH-Based Assay
How it was run: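 CHO cells stably expressing human TRPV1, Fura-2 loaded, given compound (1% DMSO in 10× stock) before acid challenge to final pH 5.0-5.1 (3.2 or 3.3 mM H2SO4). 340/380 nm ratio recorded at 0.5 Hz; maximal ratio after agonist addition versus 16-point baseline used as response.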

T1 sequence (Q8NER1 whole entry): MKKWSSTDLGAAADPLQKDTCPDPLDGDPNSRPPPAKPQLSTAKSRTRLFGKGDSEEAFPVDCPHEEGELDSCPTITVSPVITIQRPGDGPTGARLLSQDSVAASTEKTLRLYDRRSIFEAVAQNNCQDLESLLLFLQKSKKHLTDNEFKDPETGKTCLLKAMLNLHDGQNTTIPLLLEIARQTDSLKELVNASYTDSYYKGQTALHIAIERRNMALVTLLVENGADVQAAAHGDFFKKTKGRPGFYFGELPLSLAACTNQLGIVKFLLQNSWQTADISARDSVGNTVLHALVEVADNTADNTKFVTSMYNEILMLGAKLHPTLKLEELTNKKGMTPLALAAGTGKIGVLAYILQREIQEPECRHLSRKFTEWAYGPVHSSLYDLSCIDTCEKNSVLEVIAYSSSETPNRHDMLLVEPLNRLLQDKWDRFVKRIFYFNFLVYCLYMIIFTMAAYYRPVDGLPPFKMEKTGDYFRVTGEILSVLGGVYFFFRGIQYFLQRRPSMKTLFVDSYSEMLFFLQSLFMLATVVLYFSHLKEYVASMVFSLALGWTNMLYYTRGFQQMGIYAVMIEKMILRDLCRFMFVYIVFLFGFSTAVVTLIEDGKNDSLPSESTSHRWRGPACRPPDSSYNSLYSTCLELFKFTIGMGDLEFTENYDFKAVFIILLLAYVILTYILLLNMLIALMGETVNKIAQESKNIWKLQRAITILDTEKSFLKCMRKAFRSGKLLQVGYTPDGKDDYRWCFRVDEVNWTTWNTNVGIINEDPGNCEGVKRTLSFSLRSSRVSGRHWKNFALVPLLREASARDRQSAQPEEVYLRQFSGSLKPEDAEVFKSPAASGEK

IC50 (human recombinant TRPV1 [1]): ≤ 0.05 µM
IC50 (human recombinant TRPV1 [2]): ≤ 0.05 µM
SMILES: Cc1cc(NC(=O)N2CCC(F)(c3ncc(C[C@H](O)CO)cc3F)CC2)ccc1C(F)(F)F [ACQ, (S)-4-(5-(2,3-dihydroxypropyl)-3-fluoropyridin-2-yl)-4-fluoro-N-(3-methyl-4-(trifluoromethyl)phenyl)piperidine-1-carboxamide]
